According to PMC10052957, “Exploring Synthetic Dihydrobenzofuran and Benzofuran Neolignans as Antiprotozoal Agents against Trypanosoma cruzi” (Pharmaceutics, 2023):
In brackets after ≈: the same amount, converted by molar mass. Like-named read-outs stand apart in the source and are kept apart here.

What was measured:
[1] = system: chloroquine-resistant Plasmodium falciparum (strain K1); design: method as in PMID 15653333; details: cited from earlier work
[2] = system: Leishmania donovani axenic amastigotes; design: method as in PMID 15653333; details: cited from earlier work
[3] = system: Leishmania donovani infected macrophage; design: method as in PMID 15653333; details: cited from earlier work
[4] = system: trypomastigote forms of Trypanosoma brucei rhodiense; design: method as in PMID 15653333; details: cited from earlier work
[5] = system: amastigotes forms of the T. cruzi Y strain; test: In vitro antitrypanosomal activity against amastigotes of moderately drug-resistant T. cruzi Y strain (Giemsa counting in LLC-MK2 cells); assay type: cell-based, Trypanosoma cruzi; details: for SI Y Strain: CC50 of LLC-MK2 divided by IC50 at 72 h; for IC50: Trypanosoma cruzi, LLC-MK2, amastigotes, after 72 h, 95% confidence limits in parentheses
[6] = Cytotoxicity in murine spleen cells (propidium iodide, flow cytometry); assay type: cell-based, Swiss mice (Mus musculus); details: Swiss, mouse, 95% confidence limits in parentheses
Method: The cytotoxicity of DBNs 1–4 was determined using the propidium iodide and trypan blue methodologies. To assess the cytotoxic activity using propidium iodide, mice spleen cells were sown at a concentration of 6.5 × 10^6 cells/mL in a 24-well plate. DBNs 1, 2, 3, 4, and BZN were added at concentrations ranging from 1.95 to 250 µM and incubated for 24 h at 37 °C in a 5% CO2 humidified incubator (Sanyo). After the incubation period, the cells were harvested and incubated with a 10 µg/mL propidium iodide solution (Sigma-Aldrich, St. Louis, MO, USA). The cell acquisition was performed within 15 min using a flow cytometer (BD-FACSCanto™II; BD Biosciences, BR), and cell counting was used to obtain the CC50 (50% cytotoxic concentration).

[7] = Cytotoxicity in LLC-MK2 cells (trypan blue); assay type: cell-based, Monkey (Macaca mulata); details: rhesus monkey (Macaca mulatta), 95% confidence limits in parentheses
Method: To assess the cytotoxic activity of DBNs 1–4 using trypan blue, LLC-MK2 cells were sown at a concentration of 2 × 10^5 cells per well in 96-well plates. DBNs 1, 2, 3, 4, and BZN previously dissolved with DMSO were added to achieve the concentration range of 6.25-100 µM and incubated at 37 °C in a 5% CO2 humidified incubator (Sanyo) for 72 h. Next, the cells were trypsinized for 30 s, and then 10 μL of the supernatant was stained with 10 μL of a 0.4% trypan blue solution (Synth, São Paulo, Brazil). Cell counting was performed using transmitted light microscopy (Nikon) with 40X magnification using a Neubauer’s chamber (Global Glass), with a total of 100 cells being counted, where cellsstained blue were considered non-viable. Cell counting was used to obtain the CC50.

Erythrocytes = test: Hemolytic activity on defibrinated sheep blood; assay type: cell-based; details: sheep red blood cells, 30 min, 37 °C
Method: The hemolytic activity was determined as described by Kaplum and co-workers with adaptations. Defibrinated sheep blood was diluted in 0.9% saline solution. Neolignans 1, 2, 3, 4, and BZN were solubilized in DMSO (Sigma-Aldrich, St. Louis, MO, USA) and added to microtubes containing red blood cells in concentrations from 6.25 to 100 µM. […] Distilled water was used as a positive control, and a 0.9% saline solution with 0.1% DMSO was used as the negative control.

[8] = system: trypomastigote forms of the T. cruzi Y strain; design: method as in PMID 21570099; details: cited from earlier work
[9] = system: 60 humor tumor cell lines; design: method as in PMID 10639289; details: molar drug concentration required for 50% growth inhibition; cited from earlier work
[10] = system: epimastigote forms of the T. cruzi Y strain; design: method as in PMID 17015964; details: cited from earlier work
[11] = system: epimastigote forms of the T. cruzi H6 strain; design: method as in PMID 12230115; details: cited from earlier work
[12] = value in parentheses, read-out: IC50

For CCCCOC(=O)C=Cc1cc(O)c2c(c1)C(C(=O)OCCCC)C(c1ccc(O)c(O)c1)O2 (stereo not drawn), the IC50 [1] is listed as 0.43 µg/mL (≈ 0.914 µM), the IC50 [2] is listed as 0.12 µg/mL (≈ 0.255 µM) and the IC50 [3] is listed as 0.19 µg/mL (≈ 0.404 µM). The IC50 [4] was 0.29 µg/mL (≈ 0.616 µM).
With COC(=O)C=Cc1ccc2c(c1)C(C(=O)OC)C(c1ccc(O)cc1)O2 (mixture of isomers) [Compound 1, (±)-trans-dehydrodicoumarate dimethyl ester] the “SI Y Strain” value [5] was 21.73, the IC50 [5] was 3.26 µM and the CC50 at 24 h [6] was 49.9 µM. For the same compound, the CC50 at 72 h [7] was 70.9 µM and the “CH50 Erythrocytes” value (Erythrocytes) was over 100 µM.
For C/C=C/c1cc(OC)c2c(c1)[C@@H](C)[C@H](c1ccc(O)c(OC)c1)O2 [(+)-licarin], the IC50 [8] is listed as 87.7 µM.
For C/C=C/c1cc(OC)c2c(c1)[C@H](C)[C@@H](c1ccc(O)c(OC)c1)O2 [(-)-licarin], the IC50 [8] is given as 23.5 µM.
In the case of O=C(Cn1ccnc1[N+](=O)[O-])NCc1ccccc1 [BZN, benznidazole, reference compound], the “SI Y Strain” value [5] is reported as 12.13, the IC50 [5] is reported as 3.56 µM and the CC50 at 24 h [6] is reported as 1.81 µM. For the same compound, the CC50 at 72 h [7] was 43.2 µM.
Work on COC(=O)C=Cc1cc(OC)c2c(c1)C(C(=O)OC)C(c1ccc(O)c(OC)c1)O2 (stereo not drawn) [Compound 2] yielded an IC50 [5] of over 25 µM, a CC50 at 24 h [6] of 34.2 µM and a CC50 at 72 h [7] of 67.6 µM. The “CH50 Erythrocytes” value (Erythrocytes) was over 100 µM.
For COC(=O)C=Cc1cc(O)c2c(c1)C(C(=O)OC)C(c1ccc(O)c(O)c1)O2 (stereo not drawn) [Compound 3], the IC50 [5] was over 25 µM, the CC50 at 24 h [6] was under 1.95 µM and the CC50 at 72 h [7] was 30.8 µM. The “CH50 Erythrocytes” value (Erythrocytes) was over 100 µM and the GI50 [9] was 0.3 µM.
COC(=O)C=Cc1ccc2c(c1)C(C(=O)OC)C(c1ccc(OC(C)=O)cc1)O2 (stereo not drawn) [Compound 4] gave an IC50 [5] of over 25 µM, a CC50 at 24 h [6] of 51.1 µM and a CC50 at 72 h [7] of 67.5 µM. The “CH50 Erythrocytes” value (Erythrocytes) was over 100 µM and the melting point was 103 to 105 °C.
In the case of COC(=O)/C=C/c1ccc2oc(-c3ccc(O)cc3)c(C(=O)OC)c2c1 [Compound 7], the melting point is reported as 204 to 206 °C.
With OCC=Cc1ccc2c(c1)C(CO)C(c1ccc(O)cc1)O2 (stereo not drawn) [Compound 9] the melting point was 139 to 140 °C.
In the case of COC(=O)C=Cc1cc(OC)c2c(c1)C(C(=O)OC)C(c1ccc(OC(=O)c3ccccc3)c(OC)c1)O2 (stereo not drawn) [Compound 11], the melting point is reported as 109 to 111 °C.
With COC(=O)CCc1ccc2c(c1)C(C(=O)OC)C(c1ccc(O)cc1)O2 (stereo not drawn) [Compound 12] the melting point was 108 to 110 °C.
In the case of OCCCc1ccc2c(c1)C(CO)C(c1ccc(O)cc1)O2 (stereo not drawn) [Compound 14], the melting point is reported as 120 to 121 °C.
For C/C=C/c1ccc2c(c1)[C@@H](C)[C@H](c1ccc(O)cc1)O2 [conocarpan], the IC50 [10] is listed as 8.0 µg/mL and the IC50 [10, 12] is listed as 30 µM.
In the case of C/C=C/c1ccc2oc(-c3ccc(O)cc3)c(C)c2c1 [eupomatenoid-6], the IC50 [10] is given as 7.5 µg/mL and the IC50 [10, 12] is given as 28.4 µM.
For C/C=C/c1cc(OC)c2oc(-c3ccc(O)c(OC)c3)c(C)c2c1 [eupomatenoid-7], the IC50 [11] is listed as 77 µM.
For C/C=C/c1cc(OC)c2c(c1)[C@H](C)[C@@H](c1ccc(O)c(OC)c1)O2 [licarin A], the IC50 [11] is given as 123 µM.
For (±)-licarin, the IC50 [8] is listed as 127 µM.
In the case of Eupatemoid-3, the IC50 [10] is listed as 26.3 µg/mL and the IC50 [10, 12] is listed as 90.9 µM.
For eupomatenoid-5, the IC50 [10] is listed as 7.0 µg/mL and the IC50 [10, 12] is listed as 23.8 µM.
